The source of these data is PMC6390472, “‘Second-generation’ 1,2,3-triazole-based inhibitors of Porphyromonas gingivalis adherence to oral streptococci and biofilm formation” (MedChemComm, 2019).

pIC50: −log10 of the molar value.

The test deals with P. gingivalis adherence to S. gordonii. Briefly: Biofilm model of P. gingivalis adherence to S. gordonii (confocal, green/red fluorescence ratio). The class given is cell-based, P. gingivalis ATCC33277 / S. gordonii DL-1. The following applies: inhibition of P. gingivalis adherence to S. gordonii; concentration that reduced ratio of green to red fluorescence by 50%; tested 0–60 μM. Here is the method: P. gingivalis ATCC33277 was grown in reduced trypticase soy broth (Difco) supplemented with 0.5 percent yeast extract, 1 μg mL^–1 menadione, and 5 μg mL^–1 hemin. Twenty five milliliters of medium were reduced for 24 h under anaerobic conditions by equilibrating in an atmosphere consisting of 10% CO2, 10% H2, and 80% N2. Following equilibration, P. gingivalis was inoculated in the medium and grown for 48 h at 37 °C under anaerobic conditions. S. gordonii DL-1 (1) was cultured aerobically without shaking in brain heart infusion (BHI) broth supplemented with 1 percent yeast extract for 16 hours at 37 °C. For some compounds that inhibited P. gingivalis adherence to S. gordonii, we determined their effect on planktonic growth of P. gingivalis and S. gordonii. The appropriate growth medium (10 ml) was supplemented with 10 μl of a 40 mM compound stock solution in DMSO. After inoculation, broth cultures were incubated as described above and compared to cultures grown in medium that was supplemented only with 0.1% DMSO. The cell density of each culture was determined by measuring the optical density at 600 nm (O.D.600nm) and the percent growth inhibition/stimulation was calculated using the following equation: [(O.D.600nm of the control/O.D.600nm of the culture grown in the presence of compound) – 1] × 100.
Two species biofilms were formed essentially as previously described.[39] To prepare bacterial cells for biofilm culture, 10 ml of an overnight S. gordonii culture was centrifuged at 5600 rpm for 5 min and the cell pellet was suspended in 1 mL sterile PBS. Subsequently, 20 μL of 5 mg ml^–1 hexidium iodide (Molecular Probes) was added to the cell suspension and incubated for 15 min with gentle shaking at room temperature in the dark. The labeled cells were centrifuged as described above, washed with phosphate-buffered saline (10 mM Na2HPO4, […], […], and 2.7 mM KCl, pH 7.2; [PBS]) and the cell pellet was suspended in PBS at a final O.D.600nm of 0.8. Similarly, 10 mL of a 48 h culture of P. gingivalis was centrifuged at 5600 rpm for 15 min, the cell pellet was suspended in 1 mL PBS and 20 μL of 5(6)-carboxyfluorescein N-hydroxysuccinimide ester (4 mg ml^–1, Molecular Probes, Inc.) was added. After incubation for 30 min with gentle shaking at room temperature in the dark, the suspension was centrifuged and washed as described above and suspended in PBS at a final O.D.600nm of 0.4. For biofilm cultures, 1 mL of labeled S. gordonii cells was added to each well of a 12-well microtiter plate (Greiner Bio-one) containing a circular coverslip (Fisher brand) and incubated in an anaerobic chamber with rotary shaking for 24 h at 37 °C. Unbound cells were removed by aspiration and 1 ml of labeled P. gingivalis cells containing the desired concentration of test compound was added and incubated under anaerobic conditions for 22 h at 37 °C. Test compounds were dissolved in dimethyl sulfoxide (DMSO) to generate 1000× stock solutions and were routinely tested over a final concentration range of 0–60 μM. 1 μL of the appropriate stock solution was added to each 1 mL aliquot of labeled P. gingivalis cells and incubated for 30 min at room temperature prior to adding the suspension to the microtiter plate wells. For control biofilms, 1 μL of DMSO was added to 1 mL of labeled P. gingivalis and incubated as described above.
To visualize P. gingivalis/S. gordonii biofilms, unbound P. gingivalis cells were removed by aspiration and coverslips were washed once with PBS. Biofilms were fixed by incubating the coverslips with 1 mL of 4% paraformaldehyde for 5 min followed by two washes with PBS. The coverslips were then removed, placed face down on a glass microscope slide containing a drop of antifade reagent (Life Technology) and sealed with nail polish. […]
Consider `[O-][S+](Cc1nc(-c2ccccc2)c(-c2ccccc2)o1)c1ccc(-n2cc(-c3cccnc3)nn2)cc1` (centres unmarked) [Compound 28, 4,5-Diphenyl-2-(((4-(4-(pyridin-3-yl)-1H-1,2,3-triazol-1-yl)phenyl)sulfinyl)methyl) oxazole], for which the pIC50 was less than 4.22.

Take `[O-][S+](Cc1nc(-c2ccccc2)c(-c2ccccc2)o1)c1ccc(-n2cc(-c3ccc(F)cc3)nn2)cc1` (centres unmarked) [Compound 29]: the pIC50 is less than 4.22.

For the compound `[O-][S+](Cc1nc(-c2ccccc2)c(-c2ccccc2)o1)c1ccc(-n2cc(-c3cccc(F)c3)nn2)cc1` (centres unmarked) [Compound 30], the pIC50 was 4.33.

For the compound `COc1ccccc1-c1cn(-c2ccc([S+]([O-])Cc3nc(-c4ccccc4)c(-c4ccccc4)o3)cc2)nn1` (centres unmarked) [Compound 31], the negative logarithm of the IC50 (pIC50) is less than 4.22.

For the compound `[O-][S+](Cc1nc(-c2ccccc2)c(-c2ccccc2)o1)c1ccc(-n2cc(-c3ccccc3C(F)(F)F)nn2)cc1` (centres unmarked) [Compound 32], the pIC50 was less than 4.22.

On to `COc1ccc2cc(-c3cn(-c4ccc([S+]([O-])Cc5nc(-c6ccccc6)c(-c6ccccc6)o5)cc4)nn3)ccc2c1` (centres unmarked) [Compound 33], for which the pIC50 is less than 4.22.

For the compound `CCCCCc1ccc(-c2cn(-c3ccc([S+]([O-])Cc4nc(-c5ccccc5)c(-c5ccccc5)o4)cc3)nn2)cc1` (centres unmarked) [Compound 34], the negative-log IC50 (pIC50) was less than 4.22.

Regarding `[O-][S+](Cc1nc(-c2ccccc2)c(-c2ccccc2)o1)c1ccc(-n2cc(-c3ccc(Oc4ccccc4)cc3)nn2)cc1` (centres unmarked) [Compound 35], the negative logarithm of the IC50 (pIC50) was less than 4.22.

`[O-][S+](Cc1nc(-c2ccccc2)c(-c2ccccc2)o1)c1ccc(-n2cc(-c3cc(C(F)(F)F)cc(C(F)(F)F)c3)nn2)cc1` (centres unmarked) [Compound 36]: the pIC50 was less than 4.22.

For `O=S(=O)(Cc1nc(-c2ccccc2)c(-c2ccccc2)o1)c1ccc(-n2cc(-c3cccnc3)nn2)cc1` [Compound 37], the pIC50 is less than 4.22.

With `O=S(=O)(Cc1nc(-c2ccccc2)c(-c2ccccc2)o1)c1ccc(-n2cc(-c3ccc(F)cc3)nn2)cc1` [Compound 38], the pIC50 is 4.80.

Regarding `O=S(=O)(Cc1nc(-c2ccccc2)c(-c2ccccc2)o1)c1ccc(-n2cc(-c3cccc(F)c3)nn2)cc1` [Compound 39], the pIC50 was 4.47.

On to `COc1ccccc1-c1cn(-c2ccc(S(=O)(=O)Cc3nc(-c4ccccc4)c(-c4ccccc4)o3)cc2)nn1` [Compound 40], for which the negative logarithm of the IC50 (pIC50) is 4.88.

As for `O=S(=O)(Cc1nc(-c2ccccc2)c(-c2ccccc2)o1)c1ccc(-n2cc(-c3ccccc3C(F)(F)F)nn2)cc1` [Compound 41], the pIC50 is less than 4.22.

Turning to `COc1ccc2cc(-c3cn(-c4ccc(S(=O)(=O)Cc5nc(-c6ccccc6)c(-c6ccccc6)o5)cc4)nn3)ccc2c1` [Compound 42], the pIC50 was less than 4.22.

On to `CCCCCc1ccc(-c2cn(-c3ccc(S(=O)(=O)Cc4nc(-c5ccccc5)c(-c5ccccc5)o4)cc3)nn2)cc1` [Compound 43], for which the pIC50 was 4.44.

Turning to `O=S(=O)(Cc1nc(-c2ccccc2)c(-c2ccccc2)o1)c1ccc(-n2cc(-c3ccc(Oc4ccccc4)cc3)nn2)cc1` [Compound 44], the negative logarithm of the IC50 (pIC50) was 4.78.

Consider `O=S(=O)(Cc1nc(-c2ccccc2)c(-c2ccccc2)o1)c1ccc(-n2cc(-c3cc(C(F)(F)F)cc(C(F)(F)F)c3)nn2)cc1` [Compound 45], for which the negative logarithm of the IC50 (pIC50) was 4.41.

Take `[O-][S+](Cc1nc(-c2ccc(F)cc2)c(-c2ccc(F)cc2)o1)c1ccc(-n2cc(-c3cccc(F)c3)nn2)cc1` (centres unmarked) [Compound 46]: the negative logarithm of the IC50 (pIC50) is 5.28.

`[O-][S+](Cc1nc(-c2ccc(F)cc2)c(-c2ccc(F)cc2)o1)c1ccc(-n2cc(-c3ccc(F)cc3)nn2)cc1` (centres unmarked) [Compound 47]: the negative logarithm of the IC50 (pIC50) was 4.44.

For `COc1ccccc1-c1cn(-c2ccc([S+]([O-])Cc3nc(-c4ccc(F)cc4)c(-c4ccc(F)cc4)o3)cc2)nn1` (centres unmarked) [Compound 48], the negative logarithm of the IC50 (pIC50) was 5.14.

Consider `[O-][S+](Cc1nc(-c2ccc(Cl)cc2)c(-c2ccc(Cl)cc2)o1)c1ccc(-n2cc(-c3cccc(F)c3)nn2)cc1` (centres unmarked) [Compound 49], for which the pIC50 was 4.82.

For the compound `[O-][S+](Cc1nc(-c2ccc(Cl)cc2)c(-c2ccc(Cl)cc2)o1)c1ccc(-n2cc(-c3ccc(F)cc3)nn2)cc1` (centres unmarked) [Compound 50], the negative logarithm of the IC50 (pIC50) is 4.40.

Turning to `COc1ccccc1-c1cn(-c2ccc([S+]([O-])Cc3nc(-c4ccc(Cl)cc4)c(-c4ccc(Cl)cc4)o3)cc2)nn1` (centres unmarked) [Compound 51], the pIC50 is 4.99.

For the compound `O=S(=O)(Cc1nc(-c2ccc(F)cc2)c(-c2ccc(F)cc2)o1)c1ccc(-n2cc(-c3cccc(F)c3)nn2)cc1` [Compound 52], the negative logarithm of the IC50 (pIC50) is 4.40.

For `O=S(=O)(Cc1nc(-c2ccc(F)cc2)c(-c2ccc(F)cc2)o1)c1ccc(-n2cc(-c3ccc(F)cc3)nn2)cc1` [Compound 53], the negative logarithm of the IC50 (pIC50) was 4.40.

Turning to `O=S(=O)(Cc1nc(-c2ccc(Cl)cc2)c(-c2ccc(Cl)cc2)o1)c1ccc(-n2cc(-c3cccc(F)c3)nn2)cc1` [Compound 55], the pIC50 is 4.74.

Turning to `CCN(CC)c1nc(-c2cn(-c3cccc(-c4nc(-c5ccccc5)c(-c5ccccc5)o4)c3)nn2)nc(N(CC)CC)n1` [Compound 90], the negative-log IC50 (pIC50) is 4.68.

`CCN(CC)c1nc(-c2cn(-c3ccc(-c4nc(-c5ccccc5)c(-c5ccccc5)o4)cc3)nn2)nc(N(CC)CC)n1` [Compound 91]: the pIC50 is less than 4.22.

Regarding `CCN(CC)c1nc(-c2cn(-c3cccc(-c4nc(-c5ccc(F)cc5)c(-c5ccc(F)cc5)o4)c3)nn2)nc(N(CC)CC)n1` [Compound 92], the pIC50 was less than 4.22.

As for `CCN(CC)c1nc(-c2cn(-c3cccc(-c4nc(-c5ccc(Cl)cc5)c(-c5ccc(Cl)cc5)o4)c3)nn2)nc(N(CC)CC)n1` [Compound 94], the pIC50 was 4.80.

Turning to `CCN(CC)c1nc(-c2cn(-c3cccc(-c4nc(-c5ccc(OC)cc5)c(-c5ccc(OC)cc5)o4)c3)nn2)nc(N(CC)CC)n1` [Compound 96], the pIC50 was less than 4.22.

Consider `CCN(CC)c1nc(-c2cn(-c3ccc(-c4nc(-c5ccc(OC)cc5)c(-c5ccc(OC)cc5)o4)cc3)nn2)nc(N(CC)CC)n1` [Compound 97], for which the negative-log IC50 (pIC50) was 4.44.

Consider `CCN(CC)c1nc(-c2cn(-c3cccc(-c4nc(-c5ccco5)c(-c5ccco5)o4)c3)nn2)nc(N(CC)CC)n1` [Compound 98], for which the pIC50 was less than 4.22.

As for `CCN(CC)c1nc(-c2cn(-c3ccc(-c4nc(-c5ccco5)c(-c5ccco5)o4)cc3)nn2)nc(N(CC)CC)n1` [Compound 99], the pIC50 was less than 4.22.

As for `Fc1ccccc1Nc1nc(Nc2ccccc2F)nc(-c2cn(-c3cccc(-c4nc(-c5ccccc5)c(-c5ccccc5)o4)c3)nn2)n1` [Compound 100], the pIC50 was 5.02.

As for `Fc1ccccc1Nc1nc(Nc2ccccc2F)nc(-c2cn(-c3ccc(-c4nc(-c5ccccc5)c(-c5ccccc5)o4)cc3)nn2)n1` [Compound 101], the pIC50 was less than 4.22.

Take `Fc1ccccc1Nc1nc(Nc2ccccc2F)nc(-c2cn(-c3cccc(-c4nc(-c5ccc(Cl)cc5)c(-c5ccc(Cl)cc5)o4)c3)nn2)n1` [Compound 104]: the pIC50 is 4.47.

Turning to `Fc1ccccc1Nc1nc(Nc2ccccc2F)nc(-c2cn(-c3ccc(-c4nc(-c5ccc(Cl)cc5)c(-c5ccc(Cl)cc5)o4)cc3)nn2)n1` [Compound 105], the pIC50 is less than 4.22.

Turning to `COc1ccc(-c2nc(-c3cccc(-n4cc(-c5nc(Nc6ccccc6F)nc(Nc6ccccc6F)n5)nn4)c3)oc2-c2ccc(OC)cc2)cc1` [Compound 106], the pIC50 was less than 4.22.

For `COc1ccc(-c2nc(-c3ccc(-n4cc(-c5nc(Nc6ccccc6F)nc(Nc6ccccc6F)n5)nn4)cc3)oc2-c2ccc(OC)cc2)cc1` [Compound 107], the pIC50 is 4.40.
